The record followed here is ChEMBL document CHEMBL3526001, “Attenuation of intestinal absorption by major efflux transporters: quantitative tools and strategies using a Caco-2 model” (Drug Metab Dispos, 2011).

Molecules are shown by their SMILES.

The conditions of data set [1]: human, caco-2, 2 h, 10 µM.
The subject of a further data set is P-gp. Nature of the data set: in vitro. The following applies: human.
Another data set in a line: clinical. The following applies: human, in vivo.
The conditions of data set [2]: human, caco-2, 2 h, 10 µM. The source holds these as a separate data set.
Data set [3] can be described thus: in vitro. The conditions noted are these: human, Caco-2.
The nature of data set [4]: in vitro. The following applies: human, Caco-2. This is another data set of the same source.
Data set [5] can be described thus: in vitro. The conditions noted are these: human, Caco-2. This is another data set of the same source.

Description for clinical: Fraction absorbed in human

Broadly, the Papp is the rate of passage across a membrane or cell layer, normalised by area and donor concentration. A high value points to fast passage. A word on the efflux ratio: it is the permeability from basolateral to apical divided by that in the opposite direction, in the common usage. On to `CC[C@]1(O)C[C@H]2CN(CCc3c([nH]c4ccccc34)[C@@](C(=O)OC)(c3cc4c(cc3OC)N(C=O)[C@H]3[C@@](O)(C(=O)OC)[C@H](OC(C)=O)[C@]5(CC)C=CCN6CC[C@]43[C@@H]65)C2)C1` [VINCRISTINE], for which the Papp in data set [1] amounted to 0.4 ×10⁻⁶ cm/s; in data set [2], 3.5 ×10⁻⁶ cm/s. Moreover, the efflux ratio at 2 h, 10 µM with P-gp (Caco-2, with LY335979 1 uM) was found to be 8.6. Moreover, in the data set “clinical”, the Fa is less than 10%.
In general, Papp A→B refers to how fast a substance crosses the layer from the apical side. A high value points to ready permeation. Broadly, the Papp B→A is how fast a substance crosses the layer from the basolateral side. Take `CC[C@H]1OC(=O)[C@H](C)[C@@H](O[C@H]2C[C@@](C)(OC)[C@@H](O)[C@H](C)O2)[C@H](C)[C@@H](O[C@@H]2O[C@H](C)C[C@H](N(C)C)[C@H]2O)[C@](C)(OC)C[C@@H](C)C(=O)[C@H](C)[C@@H](O)[C@]1(C)O` [CLARITHROMYCIN]: the Papp A→B at 2 h, 10 µM in “in vitro [3]” was 3.5 ×10⁻⁶ cm/s. In addition, the Papp B→A at 2 h, 10 µM in the data set “in vitro [4]” worked out at 18 ×10⁻⁶ cm/s. For the same compound, the efflux ratio at 2 h, 10 µM in the data set “in vitro [5]” was found to be 5.1; in the data set on P-gp (Caco-2) it was 0.8. In “clinical”, this compound registered a Fa of 50%.
`CN1CCN(CCCN2c3ccccc3Sc3ccc(C(F)(F)F)cc32)CC1` [TRIFLUOPERAZINE]: in “in vitro [3]”, the apical-to-basolateral permeability (Papp A→B) at 2 h, 10 µM came to 0.5 ×10⁻⁶ cm/s. For the same compound, the apparent permeability from basolateral to apical (Papp B→A) at 2 h, 10 µM in “in vitro [4]” is 1 ×10⁻⁶ cm/s. The efflux ratio at 2 h, 10 µM in “in vitro [5]” worked out at 1.9; with P-gp (Caco-2), 0.9. Moreover, the Fa in the data set “clinical” stood at 16%.
Regarding `CCC1=C[C@@H]2CN(C1)Cc1c([nH]c3ccccc13)[C@@](C(=O)OC)(c1cc3c(cc1OC)N(C)[C@H]1[C@@](O)(C(=O)OC)[C@H](OC(C)=O)[C@]4(CC)C=CCN5CC[C@]31[C@@H]54)C2` [VINORELBINE], in “in vitro [3]”, the Papp A→B at 2 h, 10 µM is 1.4 ×10⁻⁶ cm/s. This compound also had a Papp B→A at 2 h, 10 µM in the data set “in vitro [4]” of 8.5 ×10⁻⁶ cm/s. The efflux ratio at 2 h, 10 µM in the data set “in vitro [5]” came out at 5.9; in the data set on P-gp (Caco-2, with LY335979 1 uM), 1. The compound also gave a Fa in “clinical” of 45%.
In the data set “in vitro [3]”, `Cc1c(O)cccc1C(=O)N[C@@H](CSc1ccccc1)[C@H](O)CN1C[C@H]2CCCC[C@H]2C[C@H]1C(=O)NC(C)(C)C` had a Papp A→B at 2 h, 10 µM of 0.7 ×10⁻⁶ cm/s. In addition, the Papp B→A at 2 h, 10 µM in “in vitro [4]” was determined as 1.7 ×10⁻⁶ cm/s. The efflux ratio at 2 h, 10 µM is 2.5 in the data set “in vitro [5]” and 0.7 in the data set on P-gp (Caco-2, with LY335979 1 uM). In “clinical”, this compound gave a Fa of 3%.
Consider `CCCC(=O)Nc1ccc(OCC(O)CNC(C)C)c(C(C)=O)c1` (stereo not drawn) [ACEBUTOLOL], for which, in the data set “in vitro [3]”, the Papp A→B at 2 h, 10 µM was found to be 1.1 ×10⁻⁶ cm/s. In “in vitro [4]”, the apparent permeability from basolateral to apical (Papp B→A) at 2 h, 10 µM came to 4.1 ×10⁻⁶ cm/s. Also, the efflux ratio at 2 h, 10 µM came to 3.6 in the data set “in vitro [5]” and 1 with P-gp (Caco-2). The same compound displayed a Fa in “clinical” of 70%.
As to `CC(C)(C)NC(=O)[C@@H]1CN(Cc2cccnc2)CCN1C[C@@H](O)C[C@@H](Cc1ccccc1)C(=O)N[C@H]1c2ccccc2C[C@H]1O.O`, the Papp A→B at 2 h, 10 µM in “in vitro [3]” was found to be 2.4 ×10⁻⁶ cm/s. Further, the apparent permeability from basolateral to apical (Papp B→A) at 2 h, 10 µM in the data set “in vitro [4]” was found to be 22.8 ×10⁻⁶ cm/s. The results for the efflux ratio at 2 h, 10 µM in the data set “in vitro [5]” and in the data set on P-gp (Caco-2) were 9.7 and 0.8, respectively. Also, the Fa in “clinical” is 63%.
Consider `Nc1cc(-c2ccncc2)c[nH]c1=O` [INAMRINONE], for which the apparent permeability (Papp) in data set [1] came to 7.5 ×10⁻⁶ cm/s; in data set [2], 16.6 ×10⁻⁶ cm/s. The efflux ratio at 2 h, 10 µM came out at 1.4 in “in vitro [5]” and 3.3 in the data set with P-gp (Caco-2, with LY335979 1 uM).
Consider `O=C1c2c(O)ccc(O)c2C(=O)c2c(NCCNCCO)ccc(NCCNCCO)c21` [MITOXANTRONE], for which, in the data set “in vitro [3]”, the Papp A→B at 2 h, 10 µM came out at 26.3 ×10⁻⁶ cm/s. The same compound returned a basolateral-to-apical permeability (Papp B→A) at 2 h, 10 µM in the data set “in vitro [4]” of 12.5 ×10⁻⁶ cm/s. Further, the efflux ratio at 2 h, 10 µM worked out at 0.5 in the data set “in vitro [5]” and 0.6 in the data set on P-gp (Caco-2). In “clinical”, the Fa stood at 85%.
For `C=CC[C@@H]1/C=C(\C)C[C@H](C)C[C@H](OC)[C@H]2O[C@@](O)(C(=O)C(=O)N3CCCC[C@H]3C(=O)O[C@H](/C(C)=C/[C@@H]3CC[C@@H](O)[C@H](OC)C3)[C@H](C)[C@@H](O)CC1=O)[C@H](C)C[C@@H]2OC` [TACROLIMUS ANHYDROUS], in “in vitro [3]”, the Papp A→B at 2 h, 10 µM turned out to be 1 ×10⁻⁶ cm/s. Moreover, the apparent permeability from basolateral to apical (Papp B→A) at 2 h, 10 µM in “in vitro [4]” was 3.6 ×10⁻⁶ cm/s. Moreover, the efflux ratio at 2 h, 10 µM in “in vitro [5]” was 3.5; with P-gp (Caco-2, with LY335979 1 uM), 0.7. This compound came in with a Fa in the data set “clinical” of 25%.
In the case of `CCCCC(=O)N(Cc1ccc(-c2ccccc2-c2nnn[nH]2)cc1)[C@H](C(=O)O)C(C)C`, the Papp A→B at 2 h, 10 µM in “in vitro [3]” was 0.4 ×10⁻⁶ cm/s. The Papp B→A at 2 h, 10 µM in the data set “in vitro [4]” turned out to be 1.7 ×10⁻⁶ cm/s. Further, the efflux ratio at 2 h, 10 µM in “in vitro [5]” was 4.1; in the data set on P-gp (Caco-2), 2.9. In the data set “clinical”, this compound yielded a Fa of 25%.
`CCn1cc(C(=O)O)c(=O)c2cc(F)c(N3CCNCC3)cc21` [NORFLOXACIN]: in “in vitro [3]”, the apical-to-basolateral permeability (Papp A→B) at 2 h, 10 µM is 1.9 ×10⁻⁶ cm/s. Besides, in “in vitro [4]”, the Papp B→A at 2 h, 10 µM is 3.3 ×10⁻⁶ cm/s. The efflux ratio at 2 h, 10 µM in “in vitro [5]” and in the data set with P-gp (Caco-2) was 1.7 throughout. Also, in the data set “clinical”, the Fa turned out to be 40%.
For `COc1cc([C@@H]2c3cc4c(cc3[C@@H](O[C@@H]3O[C@@H]5CO[C@@H](c6cccs6)O[C@H]5[C@H](O)[C@H]3O)[C@H]3COC(=O)[C@H]23)OCO4)cc(OC)c1O` [TENIPOSIDE], in the data set “in vitro [3]”, the Papp A→B at 2 h, 10 µM worked out at 0.9 ×10⁻⁶ cm/s. This compound also returned an apparent permeability from basolateral to apical (Papp B→A) at 2 h, 10 µM in the data set “in vitro [4]” of 8.8 ×10⁻⁶ cm/s. Also, the efflux ratio at 2 h, 10 µM turned out to be 9.8 in “in vitro [5]” and 2.1 in the data set with P-gp (Caco-2, with LY335979 1 uM). In the data set “clinical”, this compound gave a Fa of 0%.
Regarding `C[C@H]1C[C@@H]2[C@H]([C@@H](O)C[C@@]3(C)[C@H]2CC[C@]3(O)C(=O)CO)[C@@]2(C)C=CC(=O)C=C12` [METHYLPREDNISOLONE], in “in vitro [3]”, the Papp A→B at 2 h, 10 µM worked out at 8.5 ×10⁻⁶ cm/s. In the data set “in vitro [4]”, this compound gave an apparent permeability from basolateral to apical (Papp B→A) at 2 h, 10 µM of 24.6 ×10⁻⁶ cm/s. Besides, the efflux ratio at 2 h, 10 µM was determined as 2.9 in the data set “in vitro [5]” and 0.8 in the data set with P-gp (Caco-2, with LY335979 1 uM).
As to `O=C(O)c1cc(/N=N/c2ccc(O)c(C(=O)O)c2)ccc1O` [OLSALAZINE], the Papp A→B at 2 h, 10 µM in “in vitro [3]” worked out at 0.9 ×10⁻⁶ cm/s. The basolateral-to-apical permeability (Papp B→A) at 2 h, 10 µM in the data set “in vitro [4]” is 3.1 ×10⁻⁶ cm/s. For the same compound, the efflux ratio at 2 h, 10 µM in the data set “in vitro [5]” was determined as 3.7; in the data set with P-gp (Caco-2, with LY335979 1 uM), 1.9.
Regarding `CCc1c2c(nc3ccc(OC(=O)N4CCC(N5CCCCC5)CC4)cc13)-c1cc3c(c(=O)n1C2)COC(=O)[C@]3(O)CC` [IRINOTECAN], the Papp A→B at 2 h, 10 µM in “in vitro [3]” was 1.4 ×10⁻⁶ cm/s. Besides, the basolateral-to-apical permeability (Papp B→A) at 2 h, 10 µM in the data set “in vitro [4]” was found to be 5.1 ×10⁻⁶ cm/s. In addition, the efflux ratio at 2 h, 10 µM was found to be 3.7 in “in vitro [5]” and 2.7 with P-gp (Caco-2, with LY335979 1 uM).
Take `CC(C)(C)NC(=O)[C@@H]1C[C@@H]2CCCC[C@@H]2CN1C[C@@H](O)[C@H](Cc1ccccc1)NC(=O)[C@H](CC(N)=O)NC(=O)c1ccc2ccccc2n1`: the apparent permeability (Papp) in data set [1] is 0.4 ×10⁻⁶ cm/s; in data set [2], 5.6 ×10⁻⁶ cm/s. In addition, the Fa in the data set “clinical” turned out to be 4%.
Consider `COC(=O)[C@H]1[C@H]2C[C@@H]3c4[nH]c5cc(OC)ccc5c4CCN3C[C@H]2C[C@@H](OC(=O)c2cc(OC)c(OC)c(OC)c2)[C@@H]1OC` [RESERPINE], for which the Papp A→B at 2 h, 10 µM in the data set “in vitro [3]” turned out to be 3.6 ×10⁻⁶ cm/s. In addition, the Papp B→A at 2 h, 10 µM in the data set “in vitro [4]” is 2.3 ×10⁻⁶ cm/s. Moreover, the efflux ratio at 2 h, 10 µM in “in vitro [5]” amounted to 0.6; in the data set on P-gp (Caco-2) it was 0.7. The same compound registered a Fa in the data set “clinical” of 50%.
In the data set “in vitro [3]”, `COC(=O)C1=C(C)NC(C)=C(C(=O)OCCN(C)Cc2ccccc2)C1c1cccc([N+](=O)[O-])c1` (stereo not drawn) [NICARDIPINE] showed a Papp A→B at 2 h, 10 µM of 5 ×10⁻⁶ cm/s. In the data set “in vitro [4]”, this compound showed a Papp B→A at 2 h, 10 µM of 2.6 ×10⁻⁶ cm/s. Further, the efflux ratio at 2 h, 10 µM in the data set “in vitro [5]” and in the data set on P-gp (Caco-2) was 0.5 each time. For the same compound, the Fa in “clinical” worked out at 100%.
For the compound `O=C(CCCN1CCC(O)(c2ccc(Cl)cc2)CC1)c1ccc(F)cc1` [HALOPERIDOL], the apparent permeability from apical to basolateral (Papp A→B) at 2 h, 10 µM in the data set “in vitro [3]” amounted to 4.1 ×10⁻⁶ cm/s. In “in vitro [4]”, this compound had an apparent permeability from basolateral to apical (Papp B→A) at 2 h, 10 µM of 1.8 ×10⁻⁶ cm/s. In addition, the efflux ratio at 2 h, 10 µM was found to be 0.4 in “in vitro [5]” and 0.4 in the data set with P-gp (Caco-2, with LY335979 1 uM). In the data set “clinical”, this compound came in with a Fa of 60%.
